Test results from a compilation of properties of binary mixtures (doi:10.1016/j.jct.2014.10.022).

Assay: xn = mol fraction of the nth substance listed
Conditions: 100 kPa

CC[n+]1ccn(C)c1.O=S(=O)([O-])C(F)(F)C(F)F + CCCC[n+]1ccc(C)cc1.O=S(=O)([N-]S(=O)(=O)C(F)(F)F)C(F)(F)F showed a viscosity (293.15 K, x2 = 0.0504) of 115.9 mPa·s, a viscosity (293.15 K, x2 = 0.112) of 113.9 mPa·s and a viscosity (293.15 K, x2 = 0.5529) of 95.1 mPa·s. For the same compound, the viscosity (293.15 K, x2 = 0.6631) was 89.1 mPa·s, the viscosity (293.15 K, x2 = 0.8828) was 78.9 mPa·s and the viscosity (293.15 K, x2 = 0.9517) was 75.3 mPa·s. For the same compound, the viscosity (303.15 K, x2 = 0.0504) was 72 mPa·s, the viscosity (303.15 K, x2 = 0.112) was 70.8 mPa·s and the viscosity (303.15 K, x2 = 0.2211) was 69.5 mPa·s. It also gave a viscosity (303.15 K, x2 = 0.4432) of 62.7 mPa·s, a viscosity (303.15 K, x2 = 0.5529) of 59.4 mPa·s and a viscosity (303.15 K, x2 = 0.6631) of 55.8 mPa·s. It also gave a viscosity (303.15 K, x2 = 0.774) of 52.9 mPa·s, a viscosity (303.15 K, x2 = 0.8828) of 49.7 mPa·s and a viscosity (313.15 K, x2 = 0.2211) of 45.7 mPa·s. For the same compound, the viscosity (313.15 K, x2 = 0.3324) was 43.8 mPa·s, the viscosity (313.15 K, x2 = 0.5529) was 39.5 mPa·s and the viscosity (313.15 K, x2 = 0.774) was 35.4 mPa·s. For the same compound, the viscosity (313.15 K, x2 = 0.8828) was 33.2 mPa·s, the viscosity (313.15 K, x2 = 0.9517) was 31.7 mPa·s and the viscosity (323.15 K, x2 = 0.0504) was 33.3 mPa·s. It also gave a viscosity (323.15 K, x2 = 0.112) of 32.8 mPa·s, a viscosity (323.15 K, x2 = 0.2211) of 31.7 mPa·s and a viscosity (323.15 K, x2 = 0.3324) of 30.6 mPa·s. The viscosity (323.15 K, x2 = 0.5529) was 27.6 mPa·s, the viscosity (323.15 K, x2 = 0.6631) was 26.5 mPa·s and the viscosity (323.15 K, x2 = 0.774) was 25 mPa·s. For the same compound, the viscosity (323.15 K, x2 = 0.8828) was 23.4 mPa·s, the viscosity (323.15 K, x2 = 0.9517) was 22.4 mPa·s and the viscosity (333.15 K, x2 = 0.0504) was 24.3 mPa·s. The viscosity (333.15 K, x2 = 0.112) was 24 mPa·s, the viscosity (333.15 K, x2 = 0.2211) was 23.2 mPa·s and the viscosity (333.15 K, x2 = 0.3324) was 22.4 mPa·s. For the same compound, the viscosity (333.15 K, x2 = 0.774) was 18.4 mPa·s, the viscosity (333.15 K, x2 = 0.8828) was 17.3 mPa·s and the viscosity (333.15 K, x2 = 0.9517) was 16.6 mPa·s. It also gave a viscosity (343.15 K, x2 = 0.112) of 18 mPa·s, a viscosity (343.15 K, x2 = 0.2211) of 17.3 mPa·s and a viscosity (343.15 K, x2 = 0.3324) of 16.8 mPa·s. It also gave a viscosity (343.15 K, x2 = 0.4432) of 16.2 mPa·s, a viscosity (343.15 K, x2 = 0.5529) of 15.2 mPa·s and a viscosity (343.15 K, x2 = 0.6631) of 14.7 mPa·s. It also gave a viscosity (343.15 K, x2 = 0.774) of 13.9 mPa·s, a viscosity (343.15 K, x2 = 0.8828) of 13 mPa·s and a viscosity (343.15 K, x2 = 0.9517) of 12.5 mPa·s. For the same compound, the viscosity (353.15 K, x2 = 0.0504) was 14.2 mPa·s, the viscosity (353.15 K, x2 = 0.112) was 14 mPa·s and the viscosity (353.15 K, x2 = 0.2211) was 13.5 mPa·s. For the same compound, the viscosity (353.15 K, x2 = 0.3324) was 13.1 mPa·s, the viscosity (353.15 K, x2 = 0.4432) was 12.6 mPa·s and the viscosity (353.15 K, x2 = 0.5529) was 11.9 mPa·s. The viscosity (353.15 K, x2 = 0.6631) was 11.6 mPa·s and the viscosity (353.15 K, x2 = 0.9517) was 9.9 mPa·s.

Compound CCCC[n+]1ccc(C)cc1.O=S(=O)([N-]S(=O)(=O)C(F)(F)F)C(F)(F)F + CCOS(=O)(=O)[O-].CC[n+]1ccn(C)c1 has a viscosity (293.15 K, x2 = 0.0475) of 78.7 mPa·s, a viscosity (293.15 K, x2 = 0.226) of 100.8 mPa·s and a viscosity (293.15 K, x2 = 0.4479) of 132.9 mPa·s. The viscosity (293.15 K, x2 = 0.6663) was 150.8 mPa·s, the viscosity (293.15 K, x2 = 0.7776) was 149.6 mPa·s and the viscosity (293.15 K, x2 = 0.886) was 141.6 mPa·s. For the same compound, the viscosity (293.15 K, x2 = 0.9487) was 133.5 mPa·s, the viscosity (303.15 K, x2 = 0.0475) was 49.3 mPa·s and the viscosity (303.15 K, x2 = 0.1177) was 54 mPa·s. It also gave a viscosity (303.15 K, x2 = 0.226) of 62.2 mPa·s, a viscosity (303.15 K, x2 = 0.3341) of 70.8 mPa·s and a viscosity (303.15 K, x2 = 0.4479) of 79.8 mPa·s. It also gave a viscosity (303.15 K, x2 = 0.6663) of 90.1 mPa·s, a viscosity (303.15 K, x2 = 0.886) of 85.5 mPa·s and a viscosity (303.15 K, x2 = 0.9487) of 81.1 mPa·s. It also gave a viscosity (313.15 K, x2 = 0.0475) of 33 mPa·s, a viscosity (313.15 K, x2 = 0.1177) of 36 mPa·s and a viscosity (313.15 K, x2 = 0.226) of 41.1 mPa·s. For the same compound, the viscosity (313.15 K, x2 = 0.4479) was 51.7 mPa·s, the viscosity (313.15 K, x2 = 0.558) was 55.9 mPa·s and the viscosity (313.15 K, x2 = 0.7776) was 57.9 mPa·s. For the same compound, the viscosity (313.15 K, x2 = 0.886) was 55.7 mPa·s, the viscosity (323.15 K, x2 = 0.0475) was 23.3 mPa·s and the viscosity (323.15 K, x2 = 0.1177) was 25.3 mPa·s. It also gave a viscosity (323.15 K, x2 = 0.226) of 28.6 mPa·s, a viscosity (323.15 K, x2 = 0.3341) of 31.9 mPa·s and a viscosity (323.15 K, x2 = 0.4479) of 35.5 mPa·s. For the same compound, the viscosity (323.15 K, x2 = 0.558) was 38.2 mPa·s, the viscosity (323.15 K, x2 = 0.886) was 38.3 mPa·s and the viscosity (323.15 K, x2 = 0.9487) was 36.8 mPa·s. It also gave a viscosity (333.15 K, x2 = 0.0475) of 17.2 mPa·s, a viscosity (333.15 K, x2 = 0.226) of 20.9 mPa·s and a viscosity (333.15 K, x2 = 0.4479) of 25.5 mPa·s. The viscosity (333.15 K, x2 = 0.7776) was 28.4 mPa·s, the viscosity (333.15 K, x2 = 0.886) was 27.7 mPa·s and the viscosity (333.15 K, x2 = 0.9487) was 26.7 mPa·s. For the same compound, the viscosity (343.15 K, x2 = 0.226) was 15.6 mPa·s, the viscosity (343.15 K, x2 = 0.3341) was 17.1 mPa·s and the viscosity (343.15 K, x2 = 0.4479) was 18.9 mPa·s. The viscosity (343.15 K, x2 = 0.558) was 20.2 mPa·s, the viscosity (343.15 K, x2 = 0.886) was 20.6 mPa·s and the viscosity (353.15 K, x2 = 0.1177) was 11 mPa·s. It also gave a viscosity (353.15 K, x2 = 0.3341) of 13.3 mPa·s, a viscosity (353.15 K, x2 = 0.4479) of 14.5 mPa·s and a viscosity (353.15 K, x2 = 0.558) of 15.5 mPa·s. The viscosity (353.15 K, x2 = 0.6663) was 16.1 mPa·s, the viscosity (353.15 K, x2 = 0.886) was 15.9 mPa·s and the viscosity (353.15 K, x2 = 0.9487) was 15.4 mPa·s.
